The results in this text go back to patent US8980906B2, “Pyridonemorphinan analogs and biological activity on opioid receptors” (Purdue Pharma L.P., priority 2012, dated 2015).

Where two headings read alike, the source gives them in different places.

The target in assay [1] is T1, κ-opioid receptor (Homo sapiens (Human), UniProt P41145). The experiment in a line: κ-opioid receptor [35S]GTPγS functional assay, HEK-293 or CHO cells. It counts as biochemical. The procedure: κ-Opioid Receptor Functional Assay Procedures: Functional [^35S]GTPγS binding assays were conducted as follows. κ opioid receptor membrane solution was prepared by sequentially adding final concentrations of 0.026 μg/μl κ membrane protein (in-house), 10 μg/mL saponin, 3 μM GDP and 0.20 nM [^35S]GTPγS to binding buffer (100 mM NaCl, 10 mM MgCl2, 20 mM HEPES, pH 7.4) on ice. The prepared membrane solution (190 μl/well) was transferred to 96-shallow well polypropylene plates containing 10 μl of 20× concentrated stock solutions of agonist prepared in DMSO. Plates were incubated for 30 min at a temperature of about 25° C. with shaking. Reactions were terminated by rapid filtration onto 96-well Unifilter GF/B filter plates (Perkin Elmer, Shelton, Conn.) using a 96-well tissue harvester (Packard) and followed by three filtration washes with 200 μl ice-cold binding buffer (10 mM NaH2PO4, 10 mM Na2HPO4, pH 7.4). Filter plates were subsequently dried at 50° C. for 2-3 hours. Fifty μl/well scintillation cocktail (Perkin Elmer, Shelton, Conn.) was added and plates were counted in a Packard Top-Count for 1 min/well.
κ-Opioid Receptor Functional Data: κ GTP EC50 is the concentration of a compound providing 50% of the maximal response for the compound at a κ receptor.
κ GTP Emax (%) is the maximal effect elicited by a compound relative to the effect elicited by U69,593.
(§1) In TABLE 2, activity response of certain Compounds of the Invention to the μ-, δ- and κ-opioid receptors was determined as described above for functional assays using HEK-293 or CHO cells.
For orientation: GTPγS is a poorly hydrolysed GTP analogue; its binding reports G protein activation.

Another assay concerns the target μ-opioid receptor (Homo sapiens (Human), UniProt P35372). The experiment in a line: μ-opioid receptor [35S]GTPγS functional assay, HEK-293 or CHO cells. It counts as biochemical. The procedure: μ-Opioid Receptor Functional Assay Procedures: [^35S]GTPγS functional assays were conducted using freshly thawed μ-receptor membranes prepared in-house from a cell line expressing recombinant μ opioid receptor in a HEK-293, CHO or U-2 OS cell background, or purchased from a commercial source (Perkin Elmer, Shelton, Conn.; or DiscovRx, Fremont, Calif.). Assay reactions were prepared by sequentially adding the following reagents to binding buffer (100 mM NaCl, 10 mM MgCl2, 20 mM HEPES, pH 7.4) on ice (final concentrations indicated): membrane protein (0.026 mg/mL), saponin ([…]), GDP ([…]) and [^35S]GTPγS (0.20 nM; Perkin Elmer, Shelton, Conn.). The prepared membrane solution (190 μl/well) was transferred to 96-shallow well polypropylene plates containing 10 μl of 20× concentrated stock solutions of the agonist [D-Ala^2, N-methyl-Phe^4 Gly-ol^5]-enkephalin (DAMGO) prepared in dimethyl sulfoxide (DMSO). Plates were incubated for 30 min at about 25° C. with shaking. Reactions were terminated by rapid filtration onto 96-well Unifilter GF/B filter plates (Perkin Elmer, Shelton, Conn.) using a 96-well tissue harvester (Perkin Elmer, Shelton, Conn.) followed by three filtration washes with 200 μl of ice-cold wash buffer (10 mM NaH2PO4, 10 mM Na2HPO4, pH 7.4). Filter plates were subsequently dried at 50° C. for 2-3 hours. BetaScint scintillation cocktail (Perkin Elmer, Shelton, Conn.) was added (50 μl/well) and plates were counted using a Packard Top-Count for 1 min/well. Data were analyzed using the sigmoidal dose-response curve fitting functions in GraphPad PRISM v. 3.0, or an in-house function for non-linear, sigmoidal dose-response curve-fitting.
μ-Opioid Receptor Functional Data: μ GTP EC50 is the concentration of a compound providing 50% of the maximal response for the compound at a μ-opioid receptor.
μ GTP Emax (%) is the maximal effect elicited by a compound relative to the effect elicited by DAMGO, a standard μ agonist. Generally, the μ GTP Emax (%) value measures the efficacy of a compound to treat or prevent pain or other Conditions.
as §1

Assay [2] has as its target T1, κ-opioid receptor. The experiment in a line: κ-opioid receptor radioligand dose-displacement binding assay ([3H]-U69,593). The conditions noted are these: binding affinity, [3H]-U69,593 displacement. As for the experimental part:
κ-Opioid Receptor Binding Assay Procedures: Membranes from HEK-293 cells, CHO or U-2 OS cells expressing the recombinant human kappa opioid receptor (κ) were prepared by lysing cells in ice cold hypotonic buffer (2.5 mM MgCl2, 50 mM HEPES, pH 7.4) (10 mL/10 cm dish) followed by homogenization with a tissue grinder/Teflon pestle. Membranes were collected by centrifugation at 30,000×g for 15 min at 4° C. and pellets were resuspended in hypotonic buffer to a final concentration of 1-3 mg/mL. Protein concentrations were determined using the BioRad protein assay reagent with bovine serum albumen as standard, Aliquots of κ receptor membranes were stored at […].
Radioligand dose displacement assays used 0.4 nM [^3H]-U69,593 (GE Healthcare, Piscataway, N.J.; 40 Ci/mmole) with 15 μg membrane protein (recombinant κ opioid receptor expressed in HEK 293 cells; in-house prep) in a final volume of 200 μl binding buffer (5% DMSO, 50 mM Trizma base, pH 7.4). Non-specific binding was determined in the presence of 10 μM unlabeled naloxone or U69,593. All reactions were performed in 96-well polypropylene plates for 1 hour at a temperature of about 25° C. Binding reactions were terminated by rapid filtration onto 96-well Unifilter GF/C filter plates (Perkin Elmer, Shelton, Conn.) presoaked in 0.5% polyethylenimine (Sigma). Harvesting was performed using a 96-well tissue harvester (Perkin Elmer, Shelton, Conn.) followed by five filtration washes with 200 μl ice-cold binding buffer. Filter plates were subsequently dried at 50° C. for 1-2 hours. Fifty μl/well scintillation cocktail (Perkin Elmer, Shelton, Conn.) was added and plates were counted in a Packard Top-Count for 1 min/well.

[3] abbreviates: relative to U69,593, HEK-293 or CHO cells.
The mark [4] stands for this setting: relative to DAMGO, HEK-293 or CHO cells.

In the case of `COC(=O)c1cc2c([nH]c1=O)C[C@]13CCN(CC4CC4)[C@H](Cc4ccc(OC)cc41)[C@]3(O)C2` [Compound 2, (6R,6a,S,12aR)-methyl 15-(cyclopropylmethyl)-6a-hydroxy-2-dimethoxy-10-oxo-6,6a,7,10,11,12-hexahydro-5H-6,12a-(epiminoethano)naphtho[2,1-g]quinoline-9-carboxylate], the EC50 (as a rule, the concentration at which the effect is half-maximal) on κ-opioid receptor [1] is 0.594 ± 0.087 µM; on μ-opioid receptor, over 20 µM. Further, the Emax (usually the greatest response seen or fitted, relative to the assay's reference) at κ-opioid receptor [1] (setting [3]) was 37.5 ± 2.25%. In addition, on κ-opioid receptor [2], the Ki (as a rule, the dissociation constant of the complex between target and ligand, obtained from inhibition or displacement) worked out at 37.6 ± 4.75 nM.

As to `COc1ccc2c(c1)[C@]13CCN(CC4CC4)[C@H](C2)[C@]1(O)Cc1cc(C(N)=O)c(=O)[nH]c1C3` [Compound 4, (6R,6aS,12aR)-15-(cyclopropylmethyl)-6a-hydroxy-2-methoxy-10-oxo-6,6a,7,10,11,12-hexahydro-5H-6,12a-(epiminoethano)naphtho[2,1-g]quinoline-9-carboxamide], the EC50 on κ-opioid receptor [1] is 5.38 ± 0.489 µM; on μ-opioid receptor, over 20 µM. For the same molecule, at κ-opioid receptor [1] (setting [3]), the Emax came out at 39.7 ± 5.78%. The affinity at κ-opioid receptor [2] corresponds to a Ki of 292 ± 17 nM.

In the case of `COc1ccc2c(c1)[C@]13CCN(CC4CC4)[C@H](C2)[C@@H]1Cc1cc(C(N)=O)c(=O)[nH]c1C3` [Compound 6, (6R,6aR,12aS)-15-(cyclopropylmethyl)-2-methoxy-10-oxo-6,6a,7,10,11,12-hexahydro-5H-6,12a-(epiminoethano)naphtho[2,1-g]quinoline-9-carboxamide], the EC50 was 2.98 ± 0.587 µM on κ-opioid receptor [1] and 0.528 ± 0.121 µM on μ-opioid receptor. The Emax at κ-opioid receptor [1] (setting [3]) came out at 59.3 ± 2.33%; on μ-opioid receptor (setting [4]), 19.7 ± 2.02%. This molecule showed a Ki at κ-opioid receptor [2] of 35.7 ± 2.74 nM.

As to `COc1ccc2c(c1)[C@]13CCN(CC4CC4)[C@H](C2)[C@@H]1Cc1cc(C(=O)O)c(=O)[nH]c1C3` [Compound 10, (6R,6aR,12aS)-15-(cyclopropylmethyl)-2-methoxy-10-oxo-6,6a,7,10,11,12-hexahydro-5H-6,12a-(epiminoethano)naphtho[2,1-g]quinoline-9-carboxylic acid], the EC50 at κ-opioid receptor [1] (GTPγS, HEK-293 or CHO cells, read-out: κ EC50) was 3.49 ± 0.636 µM; at μ-opioid receptor (GTPγS, HEK-293 or CHO cells, read-out: μ EC50) it was 0.225 ± 0.0896 µM. Moreover, the “κ Emax (%)” value on κ-opioid receptor [1] (setting [3]) stood at 37.75 ± 1.70%. The “μ Emax (%)” value at μ-opioid receptor (setting [4]) was 25.67 ± 0.88%. The same molecule yielded a Ki at κ-opioid receptor [2] of 183 ± 23.3 nM.

Molecule `COc1ccc2c(c1)[C@]13CCN(CC4CC4)[C@H](C2)[C@]1(O)Cc1cc(C(=O)NCC(N)=O)c(=O)[nH]c1C3` [Compound 13, (6R,6aS,12aR)—N-(2-amino-2-oxoethyl)-15-(cyclopropylmethyl)-6a-hydroxy-2-methoxy-10-oxo-6,6a,7,10,11,12-hexahydro-5H-6,12a-(epiminoethano)naphtho[2,1-g]quinoline-9-carboxamide] gave a Ki at κ-opioid receptor [2] of 467 ± 173 nM.

As for `NC(=O)CNC(=O)c1cc2c([nH]c1=O)C[C@]13CCN(CC4CC4)[C@H](Cc4ccc(O)cc41)[C@]3(O)C2` [Compound 14, (6R,6aS,12aR)—N-(2-amino-2-oxoethyl)-15-(cyclopropylmethyl)-2,6a-dihydroxy-10-oxo-6,6a,7,10,11,12-hexahydro-5H-6,12a-(epiminoethano)naphtho[2,1-g]quinoline-9-carboxamide], the EC50 on κ-opioid receptor [1] and on μ-opioid receptor was over 20 µM throughout. At κ-opioid receptor [2], this molecule had a Ki of 1.53 ± 0.26 nM.

Consider `C[C@H](NC(=O)c1cc2c([nH]c1=O)C[C@]13CCN(CC4CC4)[C@H](Cc4ccc(O)cc41)[C@]3(O)C2)C(N)=O` [Compound 16], for which the figures for the concentration for a half-maximal effect (EC50) on κ-opioid receptor [1] and on μ-opioid receptor were over 20 µM and 0.00644 ± 0.00041 µM, respectively. Besides, the Emax on μ-opioid receptor (setting [4]) amounted to 14.7 ± 3.28%. At κ-opioid receptor [2], this molecule came in with an inhibition constant (Ki) of 1.05 ± 0.22 nM.

For the molecule `NC(=O)[C@H](Cc1ccccc1)NC(=O)c1cc2c([nH]c1=O)C[C@]13CCN(CC4CC4)[C@H](Cc4ccc(O)cc41)[C@]3(O)C2` [Compound 17, (6R,6aS,12aR)—N—((S)-1-amino-1-oxo-3-phenylpropan-2-yl)-15-(cyclopropylmethyl)-2,6a-dihydroxy-10-oxo-6,6a,7,10,11,12-hexahydro-5H-6,12a-(epiminoethano)naphtho[2,1-g]quinoline-9-carboxamide], the EC50 on κ-opioid receptor [1] and at μ-opioid receptor was over 20 µM each time. At μ-opioid receptor (setting [4]), the Emax was -0.33 ± 0.67%. In addition, the affinity on κ-opioid receptor [2], expressed as Ki, was 0.85 ± 0.15 nM.

Regarding `CC(C)C[C@H](NC(=O)c1cc2c([nH]c1=O)C[C@]13CCN(CC4CC4)[C@H](Cc4ccc(O)cc41)[C@]3(O)C2)C(N)=O` [Compound 18, (6R,6aS,12aR)—N—((S)-1-amino-4-methyl-1-oxopentan-2-yl)-15-(cyclopropylmethyl)-2,6a-dihydroxy-10-oxo-6,6a,7,10,11,12-hexahydro-5H-6,12a-(epiminoethano)naphtho[2,1-g]quinoline-9-carboxamide], the EC50 on κ-opioid receptor [1] was over 20 µM. For the same molecule, at κ-opioid receptor [2], the affinity, expressed as Ki, was 1.09 ± 0.05 nM.

`NC(=O)[C@@H]1CCCN1C(=O)c1cc2c([nH]c1=O)C[C@]13CCN(CC4CC4)[C@H](Cc4ccc(O)cc41)[C@]3(O)C2` [Compound 19, (S)-1-((6R,6aS,12aR)-15-(cyclopropylmethyl)-2,6a-dihydroxy-10-oxo-6,6a,7,10,11,12-hexahydro-5H-6,12a-(epiminoethano)naphtho[2,1-g]quinoline-9-carbonyl)pyrrolidine-2-carboxamide]: the EC50 at κ-opioid receptor [1] and on μ-opioid receptor was over 20 µM each time. At κ-opioid receptor [2], this molecule registered a Ki of 0.97 ± 0.23 nM.

For `NC(=O)C[C@H](NC(=O)c1cc2c([nH]c1=O)C[C@]13CCN(CC4CC4)[C@H](Cc4ccc(O)cc41)[C@]3(O)C2)C(N)=O` [Compound 20, (S)-2-((6R,6aS,12aR)-15-(cyclopropylmethyl)-2,6a-dihydroxy-10-oxo-6,6a,7,10,11,12-hexahydro-5H-6,12a-(epiminoethano)naphtho[2,1-g]quinoline-9-carboxamido)succinamide], the EC50 at κ-opioid receptor [1] and on μ-opioid receptor was over 20 µM in each case. The molecule also yielded an inhibition constant (Ki) on κ-opioid receptor [2] of 2.59 ± 0.99 nM.
